Results on 2 compounds are retold here after patent US20260227303A1, “SYSTEMS AND METHODS FOR MEASURING PARTICLE SIZE IN TISSUE AND TURBID MEDIA” (The General Hospital Corporation, priority 2023, published 2026).

Each structure is given as a SMILES string.

In the test the test system is platelets in whole blood. The experiment in a line: Platelet function testing: laser speckle particle sizing of platelet aggregate size in lysed whole blood. It is filed as cell-based, human.

Procedure: To prepare the 4660 μM CPD stock solution, a Plavix tablet (e.g., 75 mg, Bristol-Meyer Squibb) was crushed to powder, mixed with 50 ml of deionized water, sonicated for 10 minutes, and incubated at 50° C. in a water bath for 3 minutes. Following institutional review board (IRB) approval, de-identified blood specimens from two patients undergoing routine coagulation testing were collected in 0.105 M sodium citrate vacutainer system (e.g., Becton & Dickinson, Co., Franklin Lakes, NJ, USA) from the MGH special coagulation laboratory. The specimen was divided into four samples of 66 μl. The first sample (control) was mixed with 20 μl of saline. The second sample was mixed 5 μl of saline and 10 μl of LB. The third sample was mixed with 5 μl of saline and 10 μl of LB, and 5 μl ADP stock solution (e.g., 5 μM, Helena Laboratories, Beaumont, TX, USA). Finally, the 4th and last sample was mixed 10 μl of LB 5 μl of ADP and 5 μl of diluted CPD (5 μM). The samples were loaded in imaging chambers and speckle image acquisition started promptly. For each of the specimens, both the parallel and perpendicularly polarized speckle frames were captured for 1 second, at 750 fps.
The third sample entailed 66 μl of whole blood plus 5 μl of PBS, 10 μl of lysis buffer, and 5 μl Adenosine diphosphate (ADP), a platelet agonist to initiate platelet aggregation. […]

Regarding `Nc1ncnc2c1ncn2[C@@H]1O[C@H](COP(=O)(O)OP(=O)(O)O)[C@@H](O)[C@H]1O` [ADP, Adenosine diphosphate], the “estimated particle size (average radius)” value (66 μl whole blood + 5 μl PBS/saline + 10 μl RBC lysis buffer + 5 μl ADP, lysed blood without ADP 360 nm, increase likely reflects platelet aggregation) was 1.8 μm.
As for `COC(=O)[C@H](c1ccccc1Cl)N1CCc2sccc2C1` [CPD, clopidogrel bisulphate], the “estimated particle size (average radius)” value (66 μl whole blood + 10 μl RBC lysis buffer + 5 μl ADP + 5 μl CPD, reverts to the lysed-blood level (360 nm), potentially indicating disaggregation of platelets) is on record as 367 nm.
